Reference: US20240197938A1, “ANTIMICROBIAL COMPOUNDS BASED ON GLUCOHEPTONIC ACIDS AND THEIR SALTS” (HARCROS CHEMICALS, INC., priority 2021, published 2024)

How the values were obtained:
[1] = Bubble pressure tensiometry (dynamic surface tension, calculated CMC); assay type: physicochemical; details: for Calculated CMC: bubble tensiometry
Procedure: Dynamic surface tensions of certain formulations were measured using a KRÜSS BP100 BPT Mobile bubble pressure tensiometer. Samples of the solution of Example 7 were tested by adding the test solution to a glass dish and lowering the disposable capillary tip and temperature probe into the solution. The dynamic setting was selected, and the instrument was set to collect 30 data points, the bubble age increasing from about 10 ms to about 30,000 ms.
Bubble tensiometry was used to calculate the Critical Micelle Concentration (CMC) value for each of the solutions.
FIG. 1 presents a comparison of the bubble age to surface tension for RM14A at CMC, sub-CMC, and super-CMC concentrations. FIG. 2 presents a comparison of the bubble age to surface tension for RM14B at CMC, sub-CMC, and super-CMC concentrations. FIG. 3 presents a comparison of the bubble age to surface tension for RM14C at CMC, sub-CMC, and super-CMC concentrations. FIG. 4 presents a comparison of the bubble age to surface tension for RM12A, RM13A, RM14A, and RM15A at super-CMC concentrations. FIG. 5 presents a comparison of the bubble age to surface tension for RM12A, RM13A, RM14A, and RM15A at CMC concentrations. FIG. 6 presents a comparison of the bubble age to surface tension for RM12A, RM13A, RM14A, and RM15A at CMC concentrations. FIG. 7 presents a comparison of bubble age to surface tension for RM12A, RM13A, RM14A, and RM15A at sub-CMC concentrations.

[2] = Conductivity testing (calculated CMC); assay type: physicochemical; details: for Calculated CMC, All Points: all data points; for Calculated CMC, Average: average of outer, inner, all points; for Calculated CMC, Inner Points: inner data points; for Calculated CMC, Outer Points: outer data points
Procedure: Conductivities were measured using a VWR 23609-216 Pure H2O Tester conductivity meter. The meter probe was submerged into the test solution and swirled gently. Once the meter settled, the value was recorded.
The conductivity of the solutions of Example 7 were tested at dilutions ranging from 0.1 M to 0.001 M. The data was plotted on a logarithmic scale and analyzed in the style of Heard and Ashworth. For each sample, three graphs were reported and fitted with a trend curve: outer data points, inner data points, all data points. […] An average CMC value was determined from the three trend samples (outer data points, inner data points, all data points) in order to more accuracy predict the CMC value.
LINEST was utilized to determine the slope and intercept for each line, and a combination of INTERCEPT and SLOPE was used to determine the intersection of the two fitted lines. The Critical Micelle Concentration (CMC) was determined for each of these plots by the intercept of the two lines. Set forth below in Table 5 is the calculated CMC for each graph and the average CMC.

[3] = test system: Candida albicans; assay: ASTM E2315-16 Time-Kill Procedure; assay type: cell-based; details: 30 seconds
Procedure: (§1) Select compounds were tested for antimicrobial activity using ASTM method […]-16 (Standard Guide for Assessment of Antimicrobial Activity using a Time-Kill Procedure). Six microbes were tested: Candida albicans, Staphylococcus aureus, Staphylococcus epidermidis. Escherichia coli, Salmonella abony, and Listeria monocytogenes. Four chlorhexidine salts were tested: chlorhexidine di-α-glucoheptonate (Sample G), chlorhexidine di-β73-glucoheptonate (Sample H), chlorhexidine digluconate (Sample I), and chlorhexidine diacetate (Sample P). Both chlorhexidine diglucoheptonate salts were prepared at a 2:1 molar ratio of glucoheptonic acid to chlorhexidine. Dilutions of each salt were prepared using sterile water (20-30 ppm hardness), to achieve the desired wt. % concentration. Two glucoheptonic acids were evaluated for antimicrobial activity against the same six microbes as Example 13. Sample L was α-glucoheptonic acid. Sample M was β73-glucoheptonic acid. Benzalkonium salts were also tested using the same procedure as set forth in Example 13. The samples were benzalkonium chloride (C12-C16) (Sample C), benzalkonium chloride (C12-C14) (Sample D), benzalkonium chloride in combination with a stoichiometric amount of α-glucoheptonate (Sample F), and benzalkonium chloride in combination with a molar excess of α-glucoheptonate (Sample N). Sample F was prepared by mixing and extensively heating a stoichiometric quantity (1:1) of sodium α-glucoheptonate with benzalkonium chloride, typified by the C12-14 alkyl chain. Sample N was prepared by simply blending benzalkonium chloride, typified by the C12-16 chain, with a molar excess of sodium α-glucoheptonate (1.6:1). Both Samples F and N contain sodium chloride.

[4] = test system: Staphylococcus aureus; assay: ASTM E2315-16 Time-Kill Procedure; assay type: cell-based; details: 30 seconds
Procedure: as §1

[5] = test system: Staphylococcus epidermidis; assay: ASTM E2315-16 Time-Kill Procedure; assay type: cell-based; details: 30 seconds
Procedure: as §1

[6] = test system: Escherichia coli; assay: ASTM E2315-16 Time-Kill Procedure; assay type: cell-based; details: 30 seconds
Procedure: as §1, with “concentration.” for “concentration. Two glucoheptonic acids were evaluated for antimicrobial activity against the same six microbes as Example 13. Sample L was α-glucoheptonic acid. Sample M was β73-glucoheptonic acid.”

[7] = test system: Listeria monocytogenes; assay: ASTM E2315-16 Time-Kill Procedure; assay type: cell-based; details: 30 seconds
Procedure: as §1, with “concentration.” for “concentration. Two glucoheptonic acids were evaluated for antimicrobial activity against the same six microbes as Example 13. Sample L was α-glucoheptonic acid. Sample M was β73-glucoheptonic acid.”

[8] = test system: Salmonella abony; assay: ASTM E2315-16 Time-Kill Procedure; assay type: cell-based; details: 30 seconds
Procedure: as §1, with “concentration.” for “concentration. Two glucoheptonic acids were evaluated for antimicrobial activity against the same six microbes as Example 13. Sample L was α-glucoheptonic acid. Sample M was β73-glucoheptonic acid.”

[9] = test system: all microbes (Candida albicans, Staphylococcus aureus, Staphylococcus epidermidis, Escherichia coli, Salmonella abony, Listeria monocytogenes); assay: ASTM E2315-16 Time-Kill Procedure, average across all microbes; assay type: cell-based; details: for Log Reduction, Average, all microbes: 30 seconds; for average Log Reduction (LR) in microbial population across all microbes: 10 minutes
Procedure: Select compounds were tested for antimicrobial activity using ASTM method […]-16 (Standard Guide for Assessment of Antimicrobial Activity using a Time-Kill Procedure). Six microbes were tested: Candida albicans, Staphylococcus aureus, Staphylococcus epidermidis. Escherichia coli, Salmonella abony, and Listeria monocytogenes. Four chlorhexidine salts were tested: chlorhexidine di-α-glucoheptonate (Sample G), chlorhexidine di-β73-glucoheptonate (Sample H), chlorhexidine digluconate (Sample I), and chlorhexidine diacetate (Sample P). Both chlorhexidine diglucoheptonate salts were prepared at a 2:1 molar ratio of glucoheptonic acid to chlorhexidine. Dilutions of each salt were prepared using sterile water (20-30 ppm hardness), to achieve the desired wt. % concentration. Samples G, H, I, and P were also tested at a concentration of 0.60 wt % active and evaluated for the average Log Reduction in microbial population at 10 minutes, across all microbes. A further test was conducted at a concentration of 1.0 wt % active and evaluated for the average Log Reduction in microbial population at 10 minutes, across all microbes. Benzalkonium salts were also tested using the same procedure as set forth in Example 13. The samples were benzalkonium chloride (C12-C16) (Sample C), benzalkonium chloride (C12-C14) (Sample D), benzalkonium chloride in combination with a stoichiometric amount of α-glucoheptonate (Sample F), and benzalkonium chloride in combination with a molar excess of α-glucoheptonate (Sample N). Sample F was prepared by mixing and extensively heating a stoichiometric quantity (1:1) of sodium α-glucoheptonate with benzalkonium chloride, typified by the C12-14 alkyl chain. Sample N was prepared by simply blending benzalkonium chloride, typified by the C12-16 chain, with a molar excess of sodium α-glucoheptonate (1.6:1). Both Samples F and N contain sodium chloride. A further antimicrobial test was conducted to determine the log reduction at 10 minutes. Samples C, D, F, and N are as defined above.

N=C(NCCCCCCNC(=N)NC(=N)Nc1ccc(Cl)cc1)NC(=N)Nc1ccc(Cl)cc1.O=C(O)C(O)C(O)C(O)C(O)C(O)CO.O=C(O)C(O)C(O)C(O)C(O)C(O)CO [RM13C, Chlorhexidine di-α-glucoheptonate]
Calculated CMC [1]: 0.0198 M
Calculated CMC, All Points [2]: 0.0130 M
Calculated CMC, Average [2]: 0.0126 M
Calculated CMC, Inner Points [2]: 0.0134 M
Calculated CMC, Outer Points [2]: 0.0113 M

N=C(NCCCCCCNC(=N)NC(=N)Nc1ccc(Cl)cc1)NC(=N)Nc1ccc(Cl)cc1.O=C(O)C(O)C(O)C(O)C(O)C(O)CO.O=C(O)C(O)C(O)C(O)C(O)C(O)CO [RM14A, Chlorhexidine di-β73-glucoheptonate]
Calculated CMC [1]: 0.0168 M
Calculated CMC, All Points [2]: 0.0130 M
Calculated CMC, Average [2]: 0.0126 M
Calculated CMC, Inner Points [2]: 0.0135 M
Calculated CMC, Outer Points [2]: 0.0113 M

N=C(NCCCCCCNC(=N)NC(=N)Nc1ccc(Cl)cc1)NC(=N)Nc1ccc(Cl)cc1.O=C(O)C(O)C(O)C(O)C(O)C(O)CO.O=C(O)C(O)C(O)C(O)C(O)C(O)CO [RM14B, Chlorhexidine di-β73-glucoheptonate]
Calculated CMC [1]: 0.0167 M
Calculated CMC, All Points [2]: 0.0132 M
Calculated CMC, Average [2]: 0.0132 M
Calculated CMC, Inner Points [2]: 0.0152 M
Calculated CMC, Outer Points [2]: 0.0113 M

N=C(NCCCCCCNC(=N)NC(=N)Nc1ccc(Cl)cc1)NC(=N)Nc1ccc(Cl)cc1.O=C(O)C(O)C(O)C(O)C(O)C(O)CO.O=C(O)C(O)C(O)C(O)C(O)C(O)CO [RM14C, Chlorhexidine di-β73-glucoheptonate]
Calculated CMC [1]: 0.0166 M
Calculated CMC, All Points [2]: 0.0131 M
Calculated CMC, Average [2]: 0.0133 M
Calculated CMC, Inner Points [2]: 0.0156 M
Calculated CMC, Outer Points [2]: 0.0111 M

N=C(NCCCCCCNC(=N)NC(=N)Nc1ccc(Cl)cc1)NC(=N)Nc1ccc(Cl)cc1.O=C(O)C(O)C(O)C(O)C(O)C(O)CO.O=C(O)C(O)C(O)C(O)C(O)C(O)CO [RM15A, Chlorhexidine di-β81-glucoheptonate]
Calculated CMC [1]: 0.0173 M
Calculated CMC, All Points [2]: 0.0133 M
Calculated CMC, Average [2]: 0.0133 M
Calculated CMC, Inner Points [2]: 0.0154 M
Calculated CMC, Outer Points [2]: 0.0113 M

N=C(NCCCCCCNC(=N)NC(=N)Nc1ccc(Cl)cc1)NC(=N)Nc1ccc(Cl)cc1.O=C(O)C(O)C(O)C(O)C(O)C(O)CO.O=C(O)C(O)C(O)C(O)C(O)C(O)CO [Sample H, chlorhexidine di-β73-glucoheptonate]
surface tension versus bubble age (rate and magnitude of reduction) ([1]; sub-CMC, CMC and super-CMC concentrations, FIGS. 1-7): fall more rapidly and to a lower value than either the di-α-glucoheptonate or the comparative digluconate salt
Log Reduction ([3]; 0.20% (wt. %)): 4.26
Log Reduction ([3]; 0.60% (wt. %)): 4.56
Log Reduction ([3]; 1.00% (wt. %)): 4.51
Log Reduction ([4]; 0.20% (wt. %)): 0.76
Log Reduction ([4]; 0.60% (wt. %)): 3.19
Log Reduction ([4]; 1.00% (wt. %)): 4.33
Log Reduction ([5]; 0.20% (wt. %)): 1.47
Log Reduction ([5]; 0.60% (wt. %)): 2.65
Log Reduction ([5]; 1.00% (wt. %)): 3.75
Log Reduction ([6]; 0.20% (wt. %)): 2.39
Log Reduction ([6]; 0.60% (wt. %)): 2.87
Log Reduction ([6]; 1.00% (wt. %)): 3.77
Log Reduction ([7]; 0.20% (wt. %)): 1.57
Log Reduction ([7]; 0.60% (wt. %)): 4.99
Log Reduction ([7]; 1.00% (wt. %)): 5.27
Log Reduction ([8]; 0.20% (wt. %)): 3.14
Log Reduction ([8]; 0.60% (wt. %)): 3.26
Log Reduction ([8]; 1.00% (wt. %)): 3.44
Log Reduction, Average, all microbes ([9]; 0.20% (wt. %)): 2.27
Log Reduction, Average, all microbes ([9]; 0.60% (wt. %)): 3.59
Log Reduction, Average, all microbes ([9]; 1.00% (wt. %)): 4.18
average Log Reduction (LR) in microbial population across all microbes ([9]; 0.60 wt % active): 5.25
average Log Reduction (LR) in microbial population across all microbes ([9]; 1.0 wt % active): 5.51
performance in the Time-Kill Test ([9]; at lower concentrations): better performance than the di-α-glucoheptonate salt
